{
  "source": "patent EP0450480B1",
  "about": "“Somatostatin Analogues” (The Administrators of The Tulane Educational Fund, priority 1990, dated 1991)",
  "key": {"[1]": {"test_system": "human mammary cell line MDA-MB-231", "conditions": "at 10 »g dose; cited from earlier work"}, "[2]": {"test_system": "GH release", "conditions": "relative to somatostatin; cited from earlier work"}, "[3]": {"conditions": "in vivo; cited from earlier work"}, "[4]": {"test_system": "MiaPaCa cells", "experiment": "Growth of MiaPaCa cells measured by cell counts", "assay_type": "cell-based, human"}, "[5]": {"test_system": "human pancreatic MiaPaCa cancer cell line", "experiment": "Inhibition of 3H-thymidine incorporation into DNA, MiaPaCa cells", "assay_type": "cell-based", "experimental": "The ability of peptides of Formula I to inhibit incorporation of [³H]thymidine into DNA of monolayer cultures the small cell lung cancer line H-69 and MiaPaCa cell line is assayed as described by Kern et al. (Cancer Res., 45, 5436 (1985).\n1x10⁵ cells are plated with DME media containing 10% fetal calf serum (FCS) on Day 0. After 24 hours media is removed and replaced with DME media without serum and incubated at 37°C for 2 days. Media was then removed and replaced with DME media containing 5% FCS with or without somatostatin analog. Media with peptides was changed daily for 4 days. On day 4, 1 »Ci ³H-thymidine added and incubated an additional 17 hrs. Media is then removed and cells recovered by trypsination. DNA extracted with 1 N perchloric acid and the radioactivity measured."}},
  "note": "Marks after values point to notes of the source that are not given here. Square brackets hold non-standard residues; d marks the D form. Ends that are not written are not given here.",
  "data": [
    {"compound": "pGlu-His-Trp-Ser-Tyr-D-Lys[Ahx-A₂bu(SAL)₂(Cu)]-Leu-Arg-Pro-Gly-NH₂", "values": [
      {"measurement": "inhibits the [³H]thymidine incorporation into DNA", "setting": "[1]", "result": 87, "unit": "%"}
    ]},
    {"compound": "[dF]CY[dW]KVCW-NH2 (cysteine pairing not given here)", "values": [
      {"measurement": "times more potent than somatostatin in test for inhibition of GH release", "setting": "[2]", "result": "more than 100 times"}
    ]},
    {"compound": "C[C@H](N)C(=O)NCC(=O)N[C@H]1CSSC[C@@H](C(=O)O)NC(=O)[C@H](CO)NC(=O)[C@H]([C@@H](C)O)NC(=O)[C@H](Cc2ccccc2)NC(=O)[C@H]([C@@H](C)O)NC(=O)[C@H](CCCCN)NC(=O)[C@H](Cc2c[nH]c3ccccc23)NC(=O)[C@H](Cc2ccccc2)NC(=O)[C@H](Cc2ccccc2)NC(=O)[C@H](CC(N)=O)NC(=O)[C@H](CCCCN)NC1=O", "note": "[SS-14]", "values": [
      {"measurement": "half-life in circulation", "setting": "[3]", "result": "about 3 min"}
    ]},
    {"compound": "N[C@@H](Cc1ccc(N(CCCl)CCCl)cc1)C(=O)O", "note": "[Melphalan, 4-[bis{2-chloroethyl}amino]-phenylalanine]", "values": [
      {"measurement": "% Decrease in cell number", "setting": "[4]; Dose 10⁻⁶ M", "result": "29** %"},
      {"measurement": "% Decrease in cell number", "setting": "[4]; Dose 10⁻⁷ M", "result": 1, "unit": "%"},
      {"measurement": "% Decrease in cell number", "setting": "[4]; Dose 10⁻⁸ M", "result": 1, "unit": "%"},
      {"measurement": "% inhibition of ³H-thymidine incorp.", "setting": "[5]; Dose 10⁻⁶ M", "result": 20, "unit": "%"},
      {"measurement": "% inhibition of ³H-thymidine incorp.", "setting": "[5]; Dose 10⁻⁷ M", "result": 18, "unit": "%"}
    ]},
    {"compound": "D-Phe-Cys-Tyr-D-Trp-Lys-Val-Cys-Thr-NH₂", "values": [
      {"measurement": "times more potent than somatostatin in test for inhibition of GH release", "setting": "[2]", "result": "more than 100 times"}
    ]}
  ]
}
